Assay results taken from PMC11352961, “Peptide dendrimers transfecting CRISPR/Cas9 plasmid DNA: optimization and mechanism” (RSC Chemical Biology, 2024).
Bridge positions count the residues as written; N and C are the ends. Square brackets hold non-standard residues; d marks the D form. Side chains are listed from the residue outwards. Peptide text beside a SMILES is read from it. I, II: the chains in the order shown. * marks the point of attachment. Stearoyl = CCCCCCCCCCCCCCCCCC(=O)*

Assays:
HEK293 cells [1] = assay: Cell viability by PrestoBlue assay after transfection, HEK cells; format: cell-based; details: 4 h
HeLa cells = assay: Cell viability by PrestoBlue assay after transfection, HeLa cells; format: cell-based; details: 4 h
HEK293 cells [2] = format: cell-based; details: 1 h
in vitro = details: isolated enzyme proteinase k, pH 8

SMILES | % viability HEK cells (HEK293 cells [1]) | % viability HeLa cells (HeLa cells) | transfection of HEK cells with protease inhibition (HEK293 cells [2]) | remaining at 1 h, 200 µM (in vitro) | remaining at 2 h, 200 µM (in vitro) | remaining at 3 h, 200 µM (in vitro) | remaining at 12 h, 200 µM (in vitro) | remaining at 24 h, 200 µM (in vitro)
CCCCCCCCCCCCCCCCCC(=O)NCCCC[C@H](NC(=O)[C@H](CCCCNC(=O)[C@H](CC(C)C)NC(=O)[C@H](CCCCN)NC(=O)[C@H](CCCCNC(=O)[C@H](CC(C)C)NC(=O)[C@H](CCCCN)NC(=O)[C@H](CCCCNC(=O)[C@H](CC(C)C)NC(=O)[C@@H](N)CCCCN)NC(=O)[C@H](CC(C)C)NC(=O)[C@@H](N)CCCCN)NC(=O)[C@H](CC(C)C)NC(=O)[C@H](CCCCN)NC(=O)[C@H](CCCCNC(=O)[C@H](CC(C)C)NC(=O)[C@@H](N)CCCCN)NC(=O)[C@H](CC(C)C)NC(=O)[C@@H](N)CCCCN)NC(=O)[C@H](CC(C)C)NC(=O)[C@H](CCCCN)NC(=O)[C@H](CCCCNC(=O)[C@H](CC(C)C)NC(=O)[C@H](CCCCN)NC(=O)[C@H](CCCCNC(=O)[C@H](CC(C)C)NC(=O)[C@@H](N)CCCCN)NC(=O)[C@H](CC(C)C)NC(=O)[C@@H](N)CCCCN)NC(=O)[C@H](CC(C)C)NC(=O)[C@H](CCCCN)NC(=O)[C@H](CCCCNC(=O)[C@H](CC(C)C)NC(=O)[C@@H](N)CCCCN)NC(=O)[C@H](CC(C)C)NC(=O)[C@@H](N)CCCCN)C(N)=O [Z1] (I: H-KLK([Leu-Lys])KLKKLKK(Stearoyl)-NH2 / II: H-KLK([Leu-Lys])KLKKL / III: H-KLK([Leu-Lys])KL / IV: H-KLK([Leu-Lys])KL; amide I:6-IV:C, I:9-II:C, II:6-III:C) | 64 ± 7% | 51 ± 6% | 42% | – | – | – | – | –
CCCCCCCCCCCCCCCCCC(=O)NCCCC[C@@H](NC(=O)[C@@H](CCCCNC(=O)[C@@H](CC(C)C)NC(=O)[C@@H](CCCCN)NC(=O)[C@@H](CCCCNC(=O)[C@@H](CC(C)C)NC(=O)[C@@H](CCCCN)NC(=O)[C@@H](CCCCNC(=O)[C@@H](CC(C)C)NC(=O)[C@H](N)CCCCN)NC(=O)[C@@H](CC(C)C)NC(=O)[C@H](N)CCCCN)NC(=O)[C@@H](CC(C)C)NC(=O)[C@@H](CCCCN)NC(=O)[C@@H](CCCCNC(=O)[C@@H](CC(C)C)NC(=O)[C@H](N)CCCCN)NC(=O)[C@@H](CC(C)C)NC(=O)[C@H](N)CCCCN)NC(=O)[C@@H](CC(C)C)NC(=O)[C@@H](CCCCN)NC(=O)[C@@H](CCCCNC(=O)[C@@H](CC(C)C)NC(=O)[C@@H](CCCCN)NC(=O)[C@@H](CCCCNC(=O)[C@@H](CC(C)C)NC(=O)[C@H](N)CCCCN)NC(=O)[C@@H](CC(C)C)NC(=O)[C@H](N)CCCCN)NC(=O)[C@@H](CC(C)C)NC(=O)[C@@H](CCCCN)NC(=O)[C@@H](CCCCNC(=O)[C@@H](CC(C)C)NC(=O)[C@H](N)CCCCN)NC(=O)[C@@H](CC(C)C)NC(=O)[C@H](N)CCCCN)C(N)=O [Z26] (I: H-[dK][dL][dK]([dL-dK])[dK][dL][dK][dK][dL][dK][dK](Stearoyl)-NH2 / II: H-[dK][dL][dK]([dL-dK])[dK][dL][dK][dK][dL] / III: H-[dK][dL][dK]([dL-dK])[dK][dL] / IV: H-[dK][dL][dK]([dL-dK])[dK][dL]; amide I:6-IV:C, I:9-II:C, II:6-III:C) | 91.3 ± 0.2% | 91 ± 5% | 51% | – | – | – | – | –
CCCCCCCCCCCCCCCCCC(=O)NCCCC[C@@H](NC(=O)[C@@H](CCCCNC(=O)[C@@H](CC(C)C)NC(=O)[C@@H](CCCNC(=N)N)NC(=O)[C@@H](CCCCNC(=O)[C@@H](CC(C)C)NC(=O)[C@@H](CCCNC(=N)N)NC(=O)[C@@H](CCCCNC(=O)[C@@H](CC(C)C)NC(=O)[C@H](N)CCCNC(=N)N)NC(=O)[C@@H](CC(C)C)NC(=O)[C@H](N)CCCNC(=N)N)NC(=O)[C@@H](CC(C)C)NC(=O)[C@@H](CCCNC(=N)N)NC(=O)[C@@H](CCCCNC(=O)[C@@H](CC(C)C)NC(=O)[C@H](N)CCCNC(=N)N)NC(=O)[C@@H](CC(C)C)NC(=O)[C@H](N)CCCNC(=N)N)NC(=O)[C@@H](CC(C)C)NC(=O)[C@@H](CCCNC(=N)N)NC(=O)[C@@H](CCCCNC(=O)[C@@H](CC(C)C)NC(=O)[C@@H](CCCNC(=N)N)NC(=O)[C@@H](CCCCNC(=O)[C@@H](CC(C)C)NC(=O)[C@H](N)CCCNC(=N)N)NC(=O)[C@@H](CC(C)C)NC(=O)[C@H](N)CCCNC(=N)N)NC(=O)[C@@H](CC(C)C)NC(=O)[C@@H](CCCNC(=N)N)NC(=O)[C@@H](CCCCNC(=O)[C@@H](CC(C)C)NC(=O)[C@H](N)CCCNC(=N)N)NC(=O)[C@@H](CC(C)C)NC(=O)[C@H](N)CCCNC(=N)N)C(N)=O [Z34] (I: H-[dR][dL][dK]([dL-dR])[dR][dL][dK][dR][dL][dK][dK](Stearoyl)-NH2 / II: H-[dR][dL][dK]([dL-dR])[dR][dL][dK][dR][dL] / III: H-[dR][dL][dK]([dL-dR])[dR][dL] / IV: H-[dR][dL][dK]([dL-dR])[dR][dL]; amide I:6-IV:C, I:9-II:C, II:6-III:C) | – | 94 ± 6% | 69% | 100% | 97.7% | 95.4% | 91.8% | 101%
CCCCCCCCCCCCCCCCCC(=O)NCCCC[C@@H](NC(=O)[C@@H](CCCCNC(=O)[C@@H](CC(C)C)NC(=O)[C@@H](CCCNC(=N)N)NC(=O)[C@@H](CCCCNC(=O)[C@@H](CC(C)C)NC(=O)[C@@H](CCCNC(=N)N)NC(=O)[C@@H](CCCCNC(=O)[C@@H](CC(C)C)NC(=O)[C@H](N)CCCNC(=N)N)NC(=O)[C@@H](CC(C)C)NC(=O)[C@H](N)CCCNC(=N)N)NC(=O)[C@@H](CC(C)C)NC(=O)[C@@H](CCCNC(=N)N)NC(=O)[C@@H](CCCCNC(=O)[C@@H](CC(C)C)NC(=O)[C@H](N)CCCNC(=N)N)NC(=O)[C@@H](CC(C)C)NC(=O)[C@H](N)CCCNC(=N)N)NC(=O)[C@@H](CC(C)C)NC(=O)[C@@H](CCCNC(=N)N)NC(=O)[C@@H](CCCCNC(=O)[C@@H](CC(C)C)NC(=O)[C@@H](CCCNC(=N)N)NC(=O)[C@@H](CCCCNC(=O)[C@@H](CC(C)C)NC(=O)[C@H](N)CCCNC(=N)N)NC(=O)[C@@H](CC(C)C)NC(=O)[C@H](N)CCCNC(=N)N)NC(=O)[C@@H](CC(C)C)NC(=O)[C@@H](CCCNC(=N)N)NC(=O)[C@@H](CCCCNC(=O)[C@@H](CC(C)C)NC(=O)[C@H](N)CCCNC(=N)N)NC(=O)[C@@H](CC(C)C)NC(=O)[C@H](N)CCCNC(=N)N)C(=O)N[C@H](C)C(N)=O [Z35] (I: H-[dR][dL][dK]([dL-dR])[dR][dL][dK][dR][dL][dK][dK](Stearoyl)[dA]-NH2 / II: H-[dR][dL][dK]([dL-dR])[dR][dL][dK][dR][dL] / III: H-[dR][dL][dK]([dL-dR])[dR][dL] / IV: H-[dR][dL][dK]([dL-dR])[dR][dL]; amide I:6-IV:C, I:9-II:C, II:6-III:C) | 72 ± 5% | 94 ± 6% | – | – | – | – | – | –
CCCCCCCCCCCCCCCCCC(=O)NCCCC[C@@H](NC(=O)[C@@H](CCCCNC(=O)[C@@H](CC(C)C)NC(=O)[C@@H](CC(C)C)NC(=O)[C@@H](CCCCNC(=O)[C@@H](CC(C)C)NC(=O)[C@@H](CCCNC(=N)N)NC(=O)[C@@H](CCCCNC(=O)[C@@H](CC(C)C)NC(=O)[C@H](N)CCCNC(=N)N)NC(=O)[C@@H](CC(C)C)NC(=O)[C@H](N)CCCNC(=N)N)NC(=O)[C@@H](CC(C)C)NC(=O)[C@@H](CCCNC(=N)N)NC(=O)[C@@H](CCCCNC(=O)[C@@H](CC(C)C)NC(=O)[C@H](N)CCCNC(=N)N)NC(=O)[C@@H](CC(C)C)NC(=O)[C@H](N)CCCNC(=N)N)NC(=O)[C@@H](CC(C)C)NC(=O)[C@@H](CC(C)C)NC(=O)[C@@H](CCCCNC(=O)[C@@H](CC(C)C)NC(=O)[C@@H](CCCNC(=N)N)NC(=O)[C@@H](CCCCNC(=O)[C@@H](CC(C)C)NC(=O)[C@H](N)CCCNC(=N)N)NC(=O)[C@@H](CC(C)C)NC(=O)[C@H](N)CCCNC(=N)N)NC(=O)[C@@H](CC(C)C)NC(=O)[C@@H](CCCNC(=N)N)NC(=O)[C@@H](CCCCNC(=O)[C@@H](CC(C)C)NC(=O)[C@H](N)CCCNC(=N)N)NC(=O)[C@@H](CC(C)C)NC(=O)[C@H](N)CCCNC(=N)N)C(N)=O [Z36] (I: H-[dR][dL][dK]([dL-dR])[dR][dL][dK][dL][dL][dK][dK](Stearoyl)-NH2 / II: H-[dR][dL][dK]([dL-dR])[dR][dL][dK][dL][dL] / III: H-[dR][dL][dK]([dL-dR])[dR][dL] / IV: H-[dR][dL][dK]([dL-dR])[dR][dL]; amide I:6-IV:C, I:9-II:C, II:6-III:C) | 87 ± 2% | 92 ± 6% | – | – | – | – | – | –
CCCCCCCCCCCCCCCCCC(=O)NCCCC[C@@H](NC(=O)[C@@H](CCCCNC(=O)[C@@H](CC(C)C)NC(=O)[C@@H](CC(C)C)NC(=O)[C@@H](CCCCNC(=O)[C@@H](CC(C)C)NC(=O)[C@@H](CC(C)C)NC(=O)[C@@H](CCCCNC(=O)[C@@H](CC(C)C)NC(=O)[C@H](N)CCCNC(=N)N)NC(=O)[C@@H](CC(C)C)NC(=O)[C@H](N)CCCNC(=N)N)NC(=O)[C@@H](CC(C)C)NC(=O)[C@@H](CC(C)C)NC(=O)[C@@H](CCCCNC(=O)[C@@H](CC(C)C)NC(=O)[C@H](N)CCCNC(=N)N)NC(=O)[C@@H](CC(C)C)NC(=O)[C@H](N)CCCNC(=N)N)NC(=O)[C@@H](CC(C)C)NC(=O)[C@@H](CC(C)C)NC(=O)[C@@H](CCCCNC(=O)[C@@H](CC(C)C)NC(=O)[C@@H](CC(C)C)NC(=O)[C@@H](CCCCNC(=O)[C@@H](CC(C)C)NC(=O)[C@H](N)CCCNC(=N)N)NC(=O)[C@@H](CC(C)C)NC(=O)[C@H](N)CCCNC(=N)N)NC(=O)[C@@H](CC(C)C)NC(=O)[C@@H](CC(C)C)NC(=O)[C@@H](CCCCNC(=O)[C@@H](CC(C)C)NC(=O)[C@H](N)CCCNC(=N)N)NC(=O)[C@@H](CC(C)C)NC(=O)[C@H](N)CCCNC(=N)N)C(N)=O [Z37] (I: H-[dR][dL][dK]([dL-dR])[dL][dL][dK][dL][dL][dK][dK](Stearoyl)-NH2 / II: H-[dR][dL][dK]([dL-dR])[dL][dL][dK][dL][dL] / III: H-[dR][dL][dK]([dL-dR])[dL][dL] / IV: H-[dR][dL][dK]([dL-dR])[dL][dL]; amide I:6-IV:C, I:9-II:C, II:6-III:C) | 103 ± 1% | 95 ± 5% | – | – | – | – | – | –
